Patent US7396844B1, “Benzamidine derivatives” (Ajinomoto Co., Inc., priority 1997, dated 2008)
Structures can show the parent of a compound that is named as a salt. Where two headings read alike, the source gives them in different places.

Assays:
[1] = target: T1, activated human blood coagulation factor X (Homo sapiens, UniProt P00742); experiment: Determination of activity of inhibiting the activated blood coagulation factor X; format: biochemical; details: for IC50: read-out: Activity of inhibiting activated blood coagulation factor X (pIC50) (converted)
T1 construct: purchased Enzyme Research Co
T1 sequence (P00742 235-488 limits assumed): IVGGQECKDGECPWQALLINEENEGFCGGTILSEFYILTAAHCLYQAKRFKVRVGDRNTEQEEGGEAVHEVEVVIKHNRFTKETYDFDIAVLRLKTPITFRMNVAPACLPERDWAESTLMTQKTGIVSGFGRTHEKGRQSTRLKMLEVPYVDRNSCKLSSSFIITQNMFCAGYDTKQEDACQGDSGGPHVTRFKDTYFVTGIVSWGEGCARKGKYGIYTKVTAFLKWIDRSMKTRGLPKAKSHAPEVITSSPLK
T1 sequence (P00742 41-179 partner limits assumed): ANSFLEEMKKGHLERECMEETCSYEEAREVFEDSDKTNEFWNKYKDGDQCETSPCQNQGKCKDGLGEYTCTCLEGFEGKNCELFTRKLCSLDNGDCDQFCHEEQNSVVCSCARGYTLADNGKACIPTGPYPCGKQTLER
Procedure: 130 μl of 100 mM Tris-HCl buffer adjusted to pH 8.4 was added to 10 μl of an aqueous solution of a compound to be tested. Then 10 μl of a 0.5 unit/ml solution of activated human blood coagulation factor X (a product of Enzyme Research Co.) in Tris-HCl buffer hydrochloride of pH 8.4 was added to the resultant mixture. After the incubation at room temperature for 10 minutes, 50 μl of a solution of N-benzoyl-L-isoleucyl-L-glutamyl-glycyl-L-arginyl-p-nitroanilide hydrochloride (a product of Peptide Institute, Inc.) adjusted to 0.8 mM with Tris-HCl buffer (pH 8.4) was added thereto. The absorbance was determined and then the initial reaction rate was determined. A control was prepared in the same manner as that described above except that the solution of the compound to be tested was replaced with 10 μl of Tris-HCl buffer adjusted to pH 8.4.

human thrombin = target: T2, human thrombin (Homo sapiens, UniProt P00734); experiment: Determination of thrombin-inhibiting activity; format: biochemical; details: for IC50: read-out: Thrombin-inhibiting activity (pIC50) (converted)
T2 construct: human thrombin (a product of SIGMA Co.); purchased SIGMA Co
Procedure: 130 μl of 100 mM Tris-HCl buffer adjusted to pH 8.4 was added to 10 μl of an aqueous solution of a test compound. Then 10 μl of a solution of human thrombin (a product of SIGMA Co.) adjusted to 2 units/ml with Tris-HCl buffer of pH 8.4 was added to the resultant mixture. […] The absorbance was determined and then the initial reaction rate was determined. A control was prepared in the same manner as that described above except that the solution of the compound to be tested was replaced with 10 μl of tris hydrochloride buffer adjusted to pH 8.4.

[2] = Table 2, same manner as Example 93
[3] = Table 2, same manner as Example 94
[4] = Table 1, negative logarithm of concentration inhibiting 50% of initial rate, Tris-HCl pH 8.4, room temperature
[5] = Table 1, negative logarithm of concentration inhibiting 50% of initial rate, substrate S-2238, Tris-HCl pH 8.4

| IC50 [1, 4] [µM] | IC50 (human thrombin; [5]) [µM] | Compound | also measured |
| --- | --- | --- | --- |
| 0.0251 | – | CN(C)C(=O)c1ccc(C(=O)NCCOc2cccc(C(=N)N)c2)cc1 [Compound of Ex. 3, N-[2-(3-amidinophenoxy)ethyl]-4-(N,N-dimethylcarbamoyl)benzamide trifluoroacetate] | – |
| 0.1 | 126 | N=C(N)c1cccc(OCCNC(=O)c2ccc(/C=C/c3ccncc3)cc2)c1 [Compound of Ex. 10, N-[2-(3-amidinophenoxy)ethyl]-4-[(E)-2-(pyridine-4-yl)vinyl]benzamide bistrifluoroacetate] | – |
| 0.0501 | 20 | N=C(N)c1cccc(OCCNC(=O)c2ccc(CCc3ccncc3)cc2)c1 [Compound of Ex. 14, N-[2-(3-amidinophenoxy)ethyl]-4-[2-(pyridine-4-yl)ethyl]benzamide bistrifluoroacetate] | – |
| 0.0501 | 39.8 | N=C(N)c1cccc(OCCNC(=O)c2ccc(N3CCCC3)cc2)c1 [Compound of Ex. 18, N-[2-(3-amidinophenoxy)ethyl]-4-(pyrrolidine-1-yl)benzamide trifluoroacetate] | – |
| 0.251 | 50.1 | N=C(N)c1cccc(OCCNC(=O)c2ccc(CC3CCNCC3)cc2)c1 [Compound of Ex. 43, N-[2-(3-amidinophenoxy)ethyl]-4-[(piperidine-4-yl)methyl]benzamide bistrifluoroacetate] | – |
| 0.0631 | – | CN(C)C(=O)c1ccc(C(=O)CCCOc2cccc(C(=N)N)c2)cc1 [Compound of Ex. 64, 4-[4-(3-amidinophenoxy)butyryl]-N,N-dimethylbenzamide trifluoroacetate] | – |
| 0.0794 | – | CN(C)C(=N)c1ccc(C(=O)NCCOc2cccc(C(=N)N)c2)cc1 [Compound of Ex. 7, N-[2-(3-amidinophenoxy)ethyl]-4-(N,N-dimethylamidino)benzamide bistrifluoroacetate] | – |

The next lines start with the compound.

| Compound | IC50 [1, 4] [µM] | IC50 (human thrombin; [5]) [µM] | also measured |
| --- | --- | --- | --- |
| CCS(=O)(=O)N[C@H](COc1cccc(C(=N)N)c1)Cc1ccc(OC2CCN(C(C)=N)CC2)cc1 [Compound of Ex. 160, 3-[(2S)-2-(ethanesulfonylamino)-3-[4-(1-acetimidoyl-4-piperidyloxy)phenyl]propoxy]benzamidine bistrifluoroacetate] | – | – | IC50 [1, 2]: 0.316 µM; IC50 (human thrombin; [3]): 158 µM |
| CC(=N)N1CCC(Oc2ccc(C[C@@H](COc3cccc(C(=N)N)c3)NS(=O)(=O)c3ccc(P(=O)(O)O)cc3)cc2)CC1.O=C(O)C(F)(F)F.O=C(O)C(F)(F)F [Compound of Ex. 74] | – | – | Activity of inhibiting activated blood coagulation factor X (pIC50) [1, 4]: 7.6; Thrombin-inhibiting activity (pIC50) (human thrombin; [5]): <3.7 |
| CC(=N)N1CCC(Oc2ccc(C[C@@H](COc3cccc(C(=N)N)c3)NS(=O)(=O)c3ccc4ccccc4c3)cc2)CC1 [Compound of Ex. 162, 3-[(2S)-2-(2-naphthalenesulfonylamino)-3-[4-(1-acetimidoyl-4-piperidyloxy)phenyl]propoxy]benzamidine bistrifluoroacetate] | – | – | IC50 [1, 2]: 0.251 µM; IC50 (human thrombin; [3]): 39.8 µM |
| CCOP(=O)(O)c1ccc(S(=O)(=O)N[C@H](COc2cccc(C(=N)N)c2)Cc2ccc(OC3CCN(C(C)=N)CC3)cc2)cc1.O=C(O)C(F)(F)F.O=C(O)C(F)(F)F [Compound of Ex. 73] | – | – | Activity of inhibiting activated blood coagulation factor X (pIC50) [1, 4]: 8.1; Thrombin-inhibiting activity (pIC50) (human thrombin; [5]): 3.9 |
| CN(C)C(=O)c1ccc(C(=O)N[C@@H](COc2cccc(C(=N)N)c2)CC(=O)O)cc1 [Compound of Ex. 56, (3R)-4-(3-amidinophenoxy)-3-[(4-dimethylcarbamoylbenzoyl)amino]butyric acid trifluoroacetate] | 0.0158 | > 1000 | – |
| N-[2-(3-amidinophenoxy)ethyl]-1-(4-pyridyl)piperidine-4-carboxyamide bistrifluoroacetate [Compound of Ex. 24] | – | – | Activity of inhibiting activated blood coagulation factor X (pIC50) [1, 4]: 6.5; Thrombin-inhibiting activity (pIC50) (human thrombin; [5]): 3.2 |
| N=C(N)c1ccc(C(=O)Nc2cccc(COc3cccc(C(=N)N)c3)c2)cc1.O=C(O)C(F)(F)F.O=C(O)C(F)(F)F [Compound of Ex. 69, N-[3-(3-amidinophenoxymethyl)]phenyl-4-amidinobenzamide bistrifluoroacetate] | – | – | Activity of inhibiting activated blood coagulation factor X (pIC50) [1, 4]: 6.6; Thrombin-inhibiting activity (pIC50) (human thrombin; [5]): 4.5 |
